Assay results: patent US9783539B2, “Indoloquinolone compounds as anaplastic lymphoma kinase (ALK) inhibitors” (Jiangsu Ascentage Biomed Development Inc., priority 2014, dated 2017)
Several values for one entry are separate records, joined by “and”; a condition that tells them apart may be missing. Identical values can stand only once. Like-named read-outs stand apart in the source and are kept apart here.

Assays:
[1] = system: Kappas-299 cells containing NPM-ALK fusion protein; assay: 4-day cell viability assay (CellTiter-Glo), Kappas-299; assay type: cell-based; details: NPM-ALK, 96 h, inhibition of cell growth, 4 days, multiple values from independent experiments
Method: (§1) The effect of compounds on cell viability was determined in a 4-day proliferation assay. Cells were maintained in RPMI1640 culture medium with 10% FBS at 37° C. and an atmosphere of 5% CO2. […] Cells were seeded in 96-well plates at a density of 3,000-10,000 cells/well in 75 μl of culture medium. Compounds were serially diluted in the appropriate medium, and 75 μl of the diluted compounds were added to the appropriate wells of the cell plate. After the addition of compounds, the cells were incubated at 37° C. in an atmosphere of 5% CO2 for 4 days. Cell viability was determined using the CellTiter-Glo® Luminescent Cell Viability Assay Kit (Promega, Madison, Wis.) (for KARPAS-299 cells) or WST (2-(2-methoxy-4-nitrophenyl)-3-(4-nitrophenyl)-5-(2,4-disulfophenyl)-2H-tetrazolium, monosodium salt) Cell Counting-8 Kit (Dojindo Molecular Technologies, Inc., Rockville, Md.) (for H3122 cells) according to the manufacturers' instructions.
For CellTiter-Glo assay, 100 μl of CellTiter-Glo® Reagent was added to each well, and then the plates were incubated at room temperature for 10-20 minutes. The luminescent signal was measured using a Tecan Infinite M1000 multimode microplate reader (Tecan, Morrisville, N.C.). The readings were normalized to the DMSO-treated cells and the IC50 was calculated by nonlinear regression analysis using the GraphPad Prism 5 software.
Cells were treated for four days and cell growth was determined using a CellTiter-Glo assay.

[2] = system: H3122 non-small cell lung cancer cell line harboring the EML4-ALK fusion gene; assay: 4-day cell viability assay (WST), H3122; assay type: cell-based; details: Homo sapiens, NCI-H3122, 96 h, 4 days, read-out: IC50 (nM) in Inhibition of Tumor Cell Growth H3122 Cell line
Method: as §1
For WST assay, WST-8 reagent was added to each well at a final concentration of 10% (v/v), and then the plates were incubated at 37° C. for 1-2 hours for color development. The absorbance was measured at 450 nm using a SPECTRAmax PLUS plate reader (Molecular Devices, Sunnyvale, Calif.). The readings were normalized to the DMSO-treated cells and the half maximal inhibitory concentration (IC50) was calculated by nonlinear regression analysis using the GraphPad Prism 5 software (GraphPad Software, La Jolla, Calif.).
Cells were treated for four days and cell growth was determined using a WST assay.

[3] = molecular target: wild-type human ALK protein (cytoplasmic domain, amino acid 1058-1620, GST-fusion) (Homo sapiens, UniProt Q9UM73); assay: biochemical; details: 100 μM ATP
Chain of wild-type human ALK protein (cytoplasmic domain, amino acid 1058-1620, GST-fusion) (Q9UM73 1058-1620): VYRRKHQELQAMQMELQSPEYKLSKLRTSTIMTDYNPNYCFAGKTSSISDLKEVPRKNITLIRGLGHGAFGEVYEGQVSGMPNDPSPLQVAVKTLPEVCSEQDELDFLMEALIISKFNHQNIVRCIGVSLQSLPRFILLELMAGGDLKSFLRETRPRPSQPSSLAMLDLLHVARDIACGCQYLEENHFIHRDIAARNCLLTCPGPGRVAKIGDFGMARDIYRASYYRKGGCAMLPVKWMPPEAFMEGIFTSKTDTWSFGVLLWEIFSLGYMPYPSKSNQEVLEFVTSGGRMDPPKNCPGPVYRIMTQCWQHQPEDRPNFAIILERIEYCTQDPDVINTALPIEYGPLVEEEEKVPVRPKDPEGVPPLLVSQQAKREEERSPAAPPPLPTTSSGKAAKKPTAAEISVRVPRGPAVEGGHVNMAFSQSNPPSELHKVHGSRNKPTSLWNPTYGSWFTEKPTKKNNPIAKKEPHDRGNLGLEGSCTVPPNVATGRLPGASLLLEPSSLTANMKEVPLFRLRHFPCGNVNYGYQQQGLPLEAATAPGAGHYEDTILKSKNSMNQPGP
Method: (§2) Kinase activities of all enzymes were assessed using a Lance TR-FRET assay kit from Perkin Elmer Life Sciences (Waltham, Mass.). 2.5 μL of compound solution and 5 μL of protein solution were added into a black low volume 384 well microtiter plate which was incubated for 15 minutes with gentle shaking at room temperature, followed by adding 2.5 μL of fluorescently labeled peptide substrate (Ulight-[sequence]) and ATP mixture solution. The kinase reaction was performed in 50 mM HEPES (pH 7.5) with 1 mM EGTA, 1 mM MgCl2, and 2 mM DTT, 0.01% Tween-20 added right before the assay. […] The reaction was allowed to perform for 90 minutes in dark with gentle shaking at room temperature after which 10 μL of 20 mM EDTA and 2 nM Eu-W1024 anti-phosphotyrosine antibody (PT66) mixture solution in the detection buffer from the manufacturer was added to terminate the reaction and detect the phosphorylation of the peptide substrate. Final mixture was incubated in the dark for 1 hour before the plate was read on a Tecan Infinite M-1000 multi-mode plate reader (Tecan, Durham N.C.) with an excitation wavelength of 320 nm.

ALK mutant (G1269A) = ALK mutant (G1269A) (Homo sapiens, UniProt Q9UM73, G1269A); assay: biochemical; details: 100 μM ATP
Chain of ALK mutant (G1269A) (Q9UM73 19-1620 G1269A): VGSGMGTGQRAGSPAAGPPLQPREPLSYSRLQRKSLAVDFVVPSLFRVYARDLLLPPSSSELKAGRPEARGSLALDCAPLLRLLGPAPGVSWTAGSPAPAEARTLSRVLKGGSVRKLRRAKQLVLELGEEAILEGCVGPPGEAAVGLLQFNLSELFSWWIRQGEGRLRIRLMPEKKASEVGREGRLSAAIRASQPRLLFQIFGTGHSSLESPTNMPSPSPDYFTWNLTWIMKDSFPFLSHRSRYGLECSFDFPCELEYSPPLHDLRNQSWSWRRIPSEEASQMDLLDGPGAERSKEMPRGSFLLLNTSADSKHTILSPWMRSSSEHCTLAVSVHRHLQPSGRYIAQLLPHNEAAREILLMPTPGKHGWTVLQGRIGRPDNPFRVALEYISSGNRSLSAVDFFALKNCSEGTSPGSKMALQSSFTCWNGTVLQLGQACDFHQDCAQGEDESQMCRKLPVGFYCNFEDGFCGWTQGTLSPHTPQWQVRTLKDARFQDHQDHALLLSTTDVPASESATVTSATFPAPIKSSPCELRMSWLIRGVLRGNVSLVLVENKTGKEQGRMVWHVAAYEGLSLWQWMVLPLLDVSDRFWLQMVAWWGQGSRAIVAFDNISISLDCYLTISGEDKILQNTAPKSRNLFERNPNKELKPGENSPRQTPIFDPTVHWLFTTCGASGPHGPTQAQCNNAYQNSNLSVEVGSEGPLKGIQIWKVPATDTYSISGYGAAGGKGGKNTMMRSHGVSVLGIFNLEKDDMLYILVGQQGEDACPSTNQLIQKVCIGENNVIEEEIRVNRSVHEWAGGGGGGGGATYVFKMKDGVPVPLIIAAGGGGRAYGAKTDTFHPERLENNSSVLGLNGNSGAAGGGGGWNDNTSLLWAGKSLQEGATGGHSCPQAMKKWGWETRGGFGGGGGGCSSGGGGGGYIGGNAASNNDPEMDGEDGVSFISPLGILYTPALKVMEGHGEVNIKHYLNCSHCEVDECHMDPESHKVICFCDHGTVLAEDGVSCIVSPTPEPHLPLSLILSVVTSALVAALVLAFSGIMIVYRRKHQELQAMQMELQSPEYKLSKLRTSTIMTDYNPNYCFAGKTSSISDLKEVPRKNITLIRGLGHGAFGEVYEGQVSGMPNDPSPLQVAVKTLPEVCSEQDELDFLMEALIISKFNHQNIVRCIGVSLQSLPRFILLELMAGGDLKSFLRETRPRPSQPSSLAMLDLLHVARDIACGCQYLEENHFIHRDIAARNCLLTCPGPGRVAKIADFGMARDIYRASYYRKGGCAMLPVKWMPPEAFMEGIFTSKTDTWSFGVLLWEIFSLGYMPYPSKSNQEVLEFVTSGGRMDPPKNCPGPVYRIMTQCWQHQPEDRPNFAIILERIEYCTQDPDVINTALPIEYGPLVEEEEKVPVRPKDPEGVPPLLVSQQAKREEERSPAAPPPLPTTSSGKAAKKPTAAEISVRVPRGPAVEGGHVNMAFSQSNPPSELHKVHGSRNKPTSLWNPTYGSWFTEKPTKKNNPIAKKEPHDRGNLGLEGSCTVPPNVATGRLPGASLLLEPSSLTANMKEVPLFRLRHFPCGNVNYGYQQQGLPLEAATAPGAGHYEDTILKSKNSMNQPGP
Method: as §2

ALK mutant (S1206Y) = ALK mutant (S1206Y) (Homo sapiens, UniProt Q9UM73, S1206Y); assay: biochemical
Chain of ALK mutant (S1206Y) (Q9UM73 19-1620 S1206Y): as the sequence (Q9UM73 19-1620 G1269A) above, with S1188Y, A1251G counted along it
Method: as §2

[4] = Pharmacokinetic parameters in SD rats, IV and PO; parameters: AUC(0-t): concentration or dose not given beside the values; details: Sprague-Dawley (SD), rat, in vivo; for bioavailability: po, read-out: Oral Bioavailability (F)
Text: The pharmacokinetic (PK) parameters in SD rats for selected compounds with intravenous (IV) and oral (PO) administrations are provided in the following table (Table 5).

[5] = IC50 ALK Wild-type, Table 2, wild-type ALK
[6] = intravenous, read-out: AUC0-t IV
[7] = intravenous, read-out: t1/2 IV (converted)
[8] = oral, read-out: t1/2 PO (converted)

SMILES | IC50 [1] | IC50 [2] | IC50 ([3]; ALK IC50, wild-type ALK) | also measured
COc1cc2c(=O)c3c4ccc(C#N)cc4[nH]c3n(C3CCC3)c2c(F)c1N1CCC(N2CCOCC2)CC1 [ALK-74, 5-Cyclobutyl-4-fluoro-2-methoxy-3-(4-morpholinopiperidin-1-yl)-11-oxo-6,11-dihydro-5H-indolo[2,3-b]quinoline-8-carbonitrile] | 98 nM | 84 nM | 8.4 nM | 
CCc1cc2c(=O)c3c4ccc(C#N)cc4[nH]c3n(C(C)C)c2cc1C1CCN(C(C)C)CC1 [CJ-2239, 2-Ethyl-5-isopropyl-3-(1-isopropylpiperidin-4-yl)-11-oxo-6,11-dihydro-5H-indolo[2,3-b]quinoline-8-carbonitrile] | 16 nM | 36 ± 13 nM | 0.77 nM | 
C#Cc1cc2c(=O)c3c4ccc(C#N)cc4[nH]c3n(C3CCC3)c2cc1N1CCN(C)CC1 [ALK-72, 5-Cyclobutyl-2-ethynyl-3-(4-methylpiperazin-1-yl)-11-oxo-6,11-dihydro-5H-indolo[2,3-b]quinoline-8-carbonitrile] | 52 nM |  | 0.67 nM | IC50 [3, 5]: 0.67 nM; IC50 (ALK mutant (G1269A)): 2.4 nM; IC50 (ALK mutant (S1206Y)): 2.8 nM
CCOc1cc2c(=O)c3c4ccc(C#N)cc4[nH]c3n(C(C)C)c2c(F)c1N1CCN(C)CC1 [ALK-83, 2-Ethoxy-4-fluoro-5-isopropyl-3-(4-methylpiperazin-1-yl)-11-oxo-6,11-dihydro-5H-indolo[2,3-b]quinoline-8-carbonitrile] | 21 nM | 8.8 nM | 2 nM | AUC(0-t) [4, 6]: 1100 ng·h/mL; Cmax ([4]; intravenous, read-out: Cmax IV): 346 ng/mL; Tmax ([4]; intravenous, read-out: Tmax IV): 0.083 h; half-life [4, 7]: 5.24 h; AUC(0-t) ([4]; oral, read-out: AUC0-t PO): 4430 ng·h/mL; Cmax ([4]; oral, read-out: Cmax PO): 548 ng/mL; Tmax ([4]; oral, read-out: Tmax PO): 4 h; half-life [4, 8]: 4.1 h; bioavailability [4]: 78.8%
CCc1cc2c(=O)c3c4ccc(C#N)cc4[nH]c3n(C(C)C)c2cc1C1CCN(C)CC1 [CJ-2217, 2-Ethyl-5-isopropyl-3-(1-methylpiperidin-4-yl)-11-oxo-6,11-dihydro-5H-indolo[2,3-b]quinoline-8-carbonitrile] | 14 nM | 17 ± 8 nM | 0.52 nM | 
CCc1cc2c(=O)c3c4ccc(C#N)cc4[nH]c3n(C(C)C)c2cc1N1CCN(C(C)C)CC1 [ALK-80, 2-Ethyl-5-isopropyl-3-(4-isopropylpiperazin-1-yl)-11-oxo-6,11-dihydro-5H-indolo[2,3-b]quinoline-8-carbonitrile] | 7.6 nM | 3 ± 1 nM | 0.22 nM | 
CC(C)Oc1cc2c(=O)c3c4ccc(C#N)cc4[nH]c3n(C(C)C)c2c(F)c1N1CCN(C)CC1 [ALK-86, 4-Fluoro-2-isopropoxy-5-isopropyl-3-(4-methylpiperazin-1-yl)-11-oxo-6,11-dihydro-5H-indolo[2,3-b]quinoline-8-carbonitrile] | 31 nM | 161 nM | 5.8 nM | AUC(0-t) [4, 6]: 1080 ng·h/mL; Cmax ([4]; intravenous, read-out: Cmax IV): 261 ng/mL; Tmax ([4]; intravenous, read-out: Tmax IV): 0.083 h; half-life [4, 7]: 5.23 h; AUC(0-t) ([4]; oral, read-out: AUC0-t PO): 2440 ng·h/mL; Cmax ([4]; oral, read-out: Cmax PO): 258 ng/mL; Tmax ([4]; oral, read-out: Tmax PO): 4 h; half-life [4, 8]: 5.11 h; bioavailability [4]: 44.6%
CCc1cc2c(=O)c3c4ccc(C#N)cc4[nH]c3n(C(C)C)c2cc1C1CCN(C2COC2)CC1 [CJ-2238, 2-Ethyl-5-isopropyl-3-(1-(oxetan-3-yl)piperidin-4-yl)-11-oxo-6,11-dihydro-5H-indolo[2,3-b]quinoline-8-carbonitrile] | 231 nM | 1040 nM | 2.6 nM | 
CCc1cc2c(=O)c3c4ccc(C#N)cc4[nH]c3n(C(C)C)c2cc1N1CCC(N2CCOCC2)CC1 [ALK-78, 2-Ethyl-5-isopropyl-3-(4-morpholinopiperidin-1-yl)-11-oxo-6,11-dihydro-5H-indolo[2,3-b]quinoline-8-carbonitrile] | 25 nM | 13.1 nM | 0.7 nM | 
C#Cc1cc2c(=O)c3c4ccc(C#N)cc4[nH]c3n(C(C)C)c2cc1N1CCN(C)CC1 [ALK-71, 2-Ethynyl-5-isopropyl-3-(4-methylpiperazin-1-yl)-11-oxo-6,11-dihydro-5H-indolo[2,3-b]quinoline-8-carbonitrile] | 31 nM |  | 0.31 nM | IC50 [3, 5]: 0.31 nM; IC50 (ALK mutant (G1269A)): 0.47 nM and 0.55 nM; IC50 (ALK mutant (S1206Y)): 1.3 nM
CCc1cc2c(=O)c3c4ccc(C#N)cc4[nH]c3n(C(C)C)c2cc1N1CCN(C2COC2)CC1 [ALK-77, 2-Ethyl-5-isopropyl-3-(4-(oxetan-3-yl)piperazin-1-yl)-11-oxo-6,11-dihydro-5H-indolo[2,3-b]quinoline-8-carbonitrile] | 31 nM | 25.9 nM | 1.1 nM | 
COc1cc2c(=O)c3c4ccc(C#N)cc4[nH]c3n(C3CCC3)c2c(F)c1N1CCN(C)CC1 [ALK-75, 5-Cyclobutyl-4-fluoro-2-methoxy-3-(4-methylpiperazin-1-yl)-11-oxo-6,11-dihydro-5H-indolo[2,3-b]quinoline-8-carbonitrile] | 22 nM | 35.9 nM | 3.6 nM | 
CCOc1cc2c(=O)c3c4ccc(C#N)cc4[nH]c3n(C(C)C)c2c(F)c1N1CCC(N2CCOCC2)CC1 [ALK-76, 2-Ethoxy-4-fluoro-5-isopropyl-3-(4-morpholinopiperidin-1-yl)-11-oxo-6,11-dihydro-5H-indolo[2,3-b]quinoline-8-carbonitrile] | 35 nM | 85 ± 11 nM | 2.5 nM | 
CCc1cc2c(=O)c3c4ccc(C#N)cc4[nH]c3n(C(C)C)c2cc1C1CCN(CCO)CC1 [CJ-2241, 2-Ethyl-3-(1-(2-hydroxyethyl)piperidin-4-yl)-5-isopropyl-11-oxo-6,11-dihydro-5H-indolo[2,3-b]quinoline-8-carbonitrile] | 292 nM | 154 nM | 0.32 nM | 
CCc1cc2c(=O)c3c4ccc(C#N)cc4[nH]c3n(C(C)C)c2cc1N1CCC(N2CCN(C)CC2)CC1 [ALK-79, 2-Ethyl-5-isopropyl-3-(4-(4-methylpiperazin-1-yl)piperidin-1-yl)-11-oxo-6,11-dihydro-5H-indolo[2,3-b]quinoline-8-carbonitrile] | 9.6 nM | 2 ± 1 nM | 0.11 nM | 
CC(C)Oc1cc2c(=O)c3c4ccc(C#N)cc4[nH]c3n(C(C)C)c2c(F)c1N1CCC(N2CCOCC2)CC1 [ALK-85, 4-Fluoro-2-isopropoxy-5-isopropyl-3-(4-morpholinopiperidin-1-yl)-11-oxo-6,11-dihydro-5H-indolo[2,3-b]quinoline-8-carbonitrile] | 66 nM | 148 ± 26 nM | 22.9 nM | 
CCc1cc2c(=O)c3c4ccc(C#N)cc4[nH]c3n(C(C)C)c2cc1C1CCN(C2CCOCC2)CC1 [CJ-2240, 2-Ethyl-5-isopropyl-11-oxo-3-(1-(tetrahydro-2H-pyran-4-yl)piperidin-4-yl)-6,11-dihydro-5H-indolo[2,3-b]quinoline-8-carbonitrile] | 35 nM | 33 ± 12 nM | 0.78 nM | 
